Here are results for 4 compounds from patent US7994160B2, “Pyridazine compounds as glycogen synthase kinase 3 inhibitors” (Abbott GmbH & Co. KG, priority 2005, dated 2011).

For experiment [1], the target named is human Glycogen Synthase Kinase-3 beta (hGSK-3β) (Homo sapiens, UniProt P49841). The experiment is described as follows: Biochemical hGSK-3Beta assay (33P-ATP phosphorylation of biotinylated peptide substrate). To be noted: 10 μM ATP, 30 minutes at room temperature, read-out: GSK-3β IC50. The method, then: Methods—Biochemical hGSK-3Beta Assay
Compounds were tested for their ability to inhibit human Glycogen Synthase Kinase-3 beta (hGSK-3β) to phosphorylate biotin-[…](pS)EDEEE. Compounds were incubated with 0.5 μCi 33P-ATP, 10 μM ATP, 0.0125 U hGSK-3β (Upstate cell signaling solutions) and 1 μM substrate (biotin-[…](pS)EDEEE) in 50 mM HEPES, 10 mM MgCl2, […], 1 mM DTT, 0.0075% Triton, 2% DMSO (total volume 50 μL) for 30 minutes at room temperature. The incubation was stopped by addition of an equal volume of 100 mM EDTA, 4M NaCl. 80 μL of this mixture was added to streptavidin-coated Flashplates (PerkinElmer). Following a wash step, 33P incorporation was quantified on a MicroBeta microplate liquid scintillation counter (PerkinElmer). IC50's were determined by fitting a sigmoidal dose-response curve to the counts obtained at the different concentrations in GraphPad Prism.

Experiment [2] concerns β-catenin-modulated gene transcription. The experiment is described as follows: β-Catenin reporter-gene assay (LEF/TCF TOPFLASH/FOPFLASH luciferase). To be noted: human neuroblastoma cells, 24 h; symbols +/++/+++ not defined. The format is cell-based. The method, then:
Methods—β-Catenin Reporter-Gene Assay
Compounds were tested for their ability to modulate β-catenin-modulated gene transcription in a LEF/TCF (T-cell factor) reporter gene assay. […] human neuroblastoma cells were transiently transfected with 80 ng/well TOPFLASH plasmid (Up-state cell signaling solutions) containing two sets of three copies of the TCF binding site upstream of the Thymidine Kinase minimal promoter and firefly Luciferase open reading frame or with 80 ng/well FOPFLASH plasmid (Upstate cell signaling solutions) containing three copies of a mutated TCF binding site upstream of the Thymidine Kinase minimal promoter and firefly Luciferase open reading frame. In addition all cells were transiently transfected with the 20 ng/well pRL-TK plasmid (Promega) containing the herpes simplex virus thymidine kinase promoter to provide low to moderate levels of Renilla Luciferase expression. Transfection medium was exchanged for serum-free medium containing the test substance and incubated for 24 h at 37 degreed C. The incubation was stopped and quantified using the Dual Glo Luciferase Assay (Promega) as indicated and quantified on a Pherastar reader (BMG).
Firefly Luciferase activity was normalised for Renilla Luciferase activity per well. Subsequently, the normalised TOPFLASH response was compared to the normalised FOPFLASH response, thus giving the LEF/TCF specific signal. […]

human Glycogen Synthase Kinase-3 beta (hGSK-3β), sequence (P49841 whole entry): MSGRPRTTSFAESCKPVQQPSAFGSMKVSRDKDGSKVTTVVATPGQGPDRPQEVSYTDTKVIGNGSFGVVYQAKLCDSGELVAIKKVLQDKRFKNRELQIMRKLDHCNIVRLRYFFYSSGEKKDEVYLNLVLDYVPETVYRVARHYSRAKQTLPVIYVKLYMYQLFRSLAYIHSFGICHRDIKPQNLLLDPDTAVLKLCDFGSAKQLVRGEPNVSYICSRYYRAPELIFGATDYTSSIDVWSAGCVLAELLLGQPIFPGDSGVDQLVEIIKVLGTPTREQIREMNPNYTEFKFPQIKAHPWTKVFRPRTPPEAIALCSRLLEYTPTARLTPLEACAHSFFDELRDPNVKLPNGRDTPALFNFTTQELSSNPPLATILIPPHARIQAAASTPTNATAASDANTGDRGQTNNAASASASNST

Consider `O=C1Nc2cc([N+](=O)[O-])ccc2Nc2nnc(Cl)cc21` [Example 4, 2-Chloro-8-nitro-5,10-dihydro-3,4,5,10-tetraaza-dibenzo[a,d]cyclohepten-11-one], for which the IC50 in experiment [1] stood at 625 nM.
On the same count and under the same terms, the same measure for `C=Cc1cc2c(nn1)Nc1ccccc1NC2=O` [Example 10, 2-Vinyl-5,10-dihydro-3,4,5,10-tetraaza-dibenzo[a,d]cyclohepten-11-one]: 45 nM.
Take `NC(=O)c1cccc2c1Nc1ccccc1C(=O)N2` [Example 6, 11-Oxo-10,11-dihydro-5H-dibenzo[b,e][1,4]diazepine-6-carboxylic acid amide, reference compound]: the “Cellular Activity in GSK-3β TOPFLASH assay” value in experiment [2] is reported as “INACTIVE”. Also, the IC50 in experiment [1] was 57000 nM.
As for `O=C1Nc2ncccc2Nc2nnc(Cl)cc21` [Example 7, 8-Chloro-5,10-dihydro-1,5,6,7,11-pentaaza-dibenzo[a,d]cyclohepten-11-one], the IC50 in experiment [1] is 101 nM.

By IC50 is commonly meant the concentration needed to halve the response being measured.
